# Experimental data from US20110054040A1, “Bicyclic Triterpenoid Iripallidal as a Novel Anti-Glioma and Anti-Neoplastic Therapy” (DEPARTMENT OF BIOTECHNOLOGY, priority 2008, published 2011).
# Where two headings read alike, the source gives them in different places.
# Tests used:
# Ras [1] = test: Ras activity (Ras-GTP pull-down with Raf-1 Ras binding domain) in glioma cells; assay type: cell-based, human; settings: Iripallidal 20 μM, compared to the control
# Procedure: In another embodiment the Ras activity was performed using a commercially available kit from Upstate Biotechnology (Temecula, Calif., USA). Briefly, glioma cell lines (2×10^6) treated with Iripallidal were lysed and the cleared lysates were incubated with bead-bound RAS binding domain of Raf-1 protein to precipitate Ras-GTP. The precipitates were subjected to SDS-PAGE and Western blotting.
# Effect of Iripallidal on the level of GTP-bound Ras. The level of Ras-GTP in protein extracts of control and Iripallidal treated glioma cells was determined by the ability of Ras-GTP to bind to a specific protein domain of Raf in the form of a GST-fusion protein. […] IR1 denotes Iripallidal.
# ERK1/2 = settings: downstream indicator of Ras activation, cited from earlier work
# RasGRP3 = molecular target: T1, RasGRP3 (Homo sapiens, UniProt Q8IV61); settings: cited from earlier work
# T1 sequence (Q8IV61 1-690): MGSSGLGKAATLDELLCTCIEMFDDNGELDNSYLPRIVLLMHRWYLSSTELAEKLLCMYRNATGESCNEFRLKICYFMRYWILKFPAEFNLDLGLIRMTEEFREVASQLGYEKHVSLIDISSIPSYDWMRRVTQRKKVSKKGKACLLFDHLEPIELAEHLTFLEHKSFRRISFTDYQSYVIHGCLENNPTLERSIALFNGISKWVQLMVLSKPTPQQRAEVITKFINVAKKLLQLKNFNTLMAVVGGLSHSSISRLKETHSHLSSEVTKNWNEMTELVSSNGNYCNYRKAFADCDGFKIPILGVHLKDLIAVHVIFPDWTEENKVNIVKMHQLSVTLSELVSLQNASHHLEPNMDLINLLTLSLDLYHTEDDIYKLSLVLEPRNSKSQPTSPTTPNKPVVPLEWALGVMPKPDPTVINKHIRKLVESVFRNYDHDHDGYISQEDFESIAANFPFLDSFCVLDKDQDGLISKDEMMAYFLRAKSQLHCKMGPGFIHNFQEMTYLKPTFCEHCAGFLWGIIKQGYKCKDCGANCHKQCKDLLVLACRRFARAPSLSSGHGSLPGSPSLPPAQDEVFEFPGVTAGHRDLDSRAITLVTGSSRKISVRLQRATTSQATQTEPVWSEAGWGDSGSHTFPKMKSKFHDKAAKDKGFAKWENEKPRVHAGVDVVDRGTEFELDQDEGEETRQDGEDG
# Ras [2] = test: Western blot analysis of Ras expression in glioma cells; assay type: cell-based, human; settings: GBM cell lines (A172, U87MG); Iripallidal 20 μM
# Procedure: In another embodiment, protein isolated from glioma cells were treated with Iripallidal and electrophoresed on 6% to 10% polyacrylamide gel, Western blotting was performed and expression of Ras determined as described previously.
# (§1) Glioblastoma cell lines U87MG, A172, T98G, and LN229; breast cancer cell line MCF7, cervical cancer cell line HeLa, hepatocellular carcinoma cell line HepG2, acute myeloid leukemia THP1, colon carcinoma cell line HT-29 and acute myeloid leukemic cell line THP1 were obtained from American Type Culture Collection and cultured in DMEM supplemented with 10% fetal bovine serum. On attaining semi-confluence, cells were switched to serum free media and after 12 hours, cells were treated with different concentration of Iripallidal (in DMSO) in serum free media for 24 hours. Following treatment, the cells were processed for Western blot analysis. DMSO treated cells were used as controls.
# Protein from whole cell lysates were isolated as described previously. Twenty to fifty μg of protein isolated from cells treated with Iripallidal was electrophoresed on 6% to 10% polyacrylamide gel. Western blotting was performed and Ras expression was determined as described. The blots were stripped and reprobed with anti-β-actin to determine equivalent loading.
# [3] = system: U87MG, A172, LN229 and T98G cells; test: MTS cell viability assay, glioma cell lines; assay type: cell-based, human; settings: 24 hours, serum free media, in vitro
# Procedure: In another embodiment GBM cell lines U87MG, A172, T98G, and LN229 were treated with different concentration of Iripallidal (in Dimethyl sulphoxide, DMSO) in serum free media for 24 hours and cell viability was assessed using the [3-(4,5-dimethylthiazol-2-yl)-5-(3-carboxymethoxy-phenyl)-2-(4-sulfophenyl)-2H-tetrazolium, inner salt] (MTS) assay. Values were expressed as percent cell viability relative to control.
# as §1, with “DMSO treated cells were used as controls.” left out
# (§2) Cell viability was assessed using the [3-(4,5-dimethylthiazol-2-yl)-5-(3-carboxymethoxy-phenyl)-2-(4-sulfophenyl)-2H-tetrazolium, inner salt] […] After 4 hours of incubation the absorbance reflecting reduction of MTS by viable cells was determined at 490 nm. Values were expressed as a percentage relative to those obtained in controls.
# [4] = system: panel of 60 human cancer cell lines; settings: NCI 60 cell line screen; cited from earlier work
# protein kinase C alpha = protein kinase C alpha (Homo sapiens, UniProt P17252); settings: cited from earlier work
# [5] = system: MCF-7, HeLa, HepG2, THP1, HT-29 cells; test: MTS cell viability assay, breast, cervical, hepatocellular, myeloid leukemia and colon cancer cell lines; assay type: cell-based, human
# Procedure: In another embodiment colon cancer cell line HT29, breast cancer line MCF-7, cervical cancer cell line HeLa, hepatocellular carcinoma cell line HepG2 and acute myeloid leukemic cell line THP1 were treated with different concentration of Iripallidal (in Dimethyl sulphoxide, DMSO) in serum free media for 24 hours and cell viability was assessed using the MTS assay. Values were expressed as a percentage relative to those obtained in controls.
# as §1, with “Following treatment, the cells were processed for Western blot analysis. DMSO treated cells were used as controls.” left out
# as §2
# normal human monocytes = test: MTS cell viability assay, normal human monocytes; assay type: cell-based; settings: 24 hours, serum free media
# Procedure: In another embodiment normal human monocytes were treated with different concentration of Iripallidal in serum free media for 24 hours and cell viability was assessed using the MTS assay. Values were expressed as a percentage relative to those obtained in controls.
# Whole blood (5 ml) was drawn from normal human volunteers and mononuclear cells were separated by Histopaque density gradient centrifugation. Briefly, blood was diluted twice with phosphate buffered saline (PBS) and layered over Histopaque (Sigma, Mo., USA) and centrifuged at 1500 rpm for 20 mins at room temperature. Peripheral blood mononuclear cells (PBMC) were collected carefully at the interface of Histopaque and plasma, diluted five times with PBS and centrifuged at 1500 rpm for 10 mins. PBMC thus pelleted were washed twice with PBS and seeded onto glass petri dishes and allowed to adhere for 3 hrs. Non adherent cells were removed by gentle washing with PBS twice and the adherent monocytes were used in MTS assay.
# as §2, with “salt] (MTS) as described earlier.” for “salt]”
Compound,Ras activity (Ras-GTP level) (Ras [1]),phosphorylation of ERK1/2 (ERK1/2),phosphorylation of ERK1/2 (ERK1/2; listed as NSC 631939),binding to RasGRP3 (RasGRP3),binding to RasGRP3 (RasGRP3; listed as NSC 631939),Ras levels (Ras [2]),viability of glioblastoma cell lines [3],anti-proliferative activity [4],binding to protein kinase C alpha (protein kinase C alpha),"proliferation of breast, colon, cervical, liver and myeloid cancer cells ([5]; 24 hours, serum free media)","reduction of proliferation of cancer cell lines ([5]; cancer cell lines, not specified further)",viability of normal human monocytes (normal human monocytes)
"CC1=CC[C@H](C)C(C)(C)C1/C=C/C(C)=C/CC[C@@]1(CO)[C@H](CCCO)/C(=C(/C)C=O)CC[C@]1(C)O (single isomer, unassigned; (-)) [Iripallidal]",An increase Ras activity was observed,induces phosphorylation of ERK1/2 in a Ras dependent manner,induced phosphorylation of ERK1/2,binds to RasGRP3,bound,elevated both Ras levels,decreased the viability of glioblastoma cell lines significantly,micromolar to nanomolar range,bound,inhibited the proliferation,50-70%,does not effect the viability
"C=C(/C=C/C=C(/CCC=C(C)C)COC(C)=O)[C@@H]1CC[C@]2([C@H](CCCO)/C(=C(/C)C=O)CC[C@]2(C)O)[C@@H]1O [NSC 631941, reference compound]",,induced phosphorylation of ERK1/2,,bound,,,,,bound,,,
